For test [1], the target named is T1, Glucocorticoid Receptor (GR) (Homo sapiens, UniProt P04150).
T1 construct: purchased Invitrogen P2893
T1 sequence (P04150 1-777): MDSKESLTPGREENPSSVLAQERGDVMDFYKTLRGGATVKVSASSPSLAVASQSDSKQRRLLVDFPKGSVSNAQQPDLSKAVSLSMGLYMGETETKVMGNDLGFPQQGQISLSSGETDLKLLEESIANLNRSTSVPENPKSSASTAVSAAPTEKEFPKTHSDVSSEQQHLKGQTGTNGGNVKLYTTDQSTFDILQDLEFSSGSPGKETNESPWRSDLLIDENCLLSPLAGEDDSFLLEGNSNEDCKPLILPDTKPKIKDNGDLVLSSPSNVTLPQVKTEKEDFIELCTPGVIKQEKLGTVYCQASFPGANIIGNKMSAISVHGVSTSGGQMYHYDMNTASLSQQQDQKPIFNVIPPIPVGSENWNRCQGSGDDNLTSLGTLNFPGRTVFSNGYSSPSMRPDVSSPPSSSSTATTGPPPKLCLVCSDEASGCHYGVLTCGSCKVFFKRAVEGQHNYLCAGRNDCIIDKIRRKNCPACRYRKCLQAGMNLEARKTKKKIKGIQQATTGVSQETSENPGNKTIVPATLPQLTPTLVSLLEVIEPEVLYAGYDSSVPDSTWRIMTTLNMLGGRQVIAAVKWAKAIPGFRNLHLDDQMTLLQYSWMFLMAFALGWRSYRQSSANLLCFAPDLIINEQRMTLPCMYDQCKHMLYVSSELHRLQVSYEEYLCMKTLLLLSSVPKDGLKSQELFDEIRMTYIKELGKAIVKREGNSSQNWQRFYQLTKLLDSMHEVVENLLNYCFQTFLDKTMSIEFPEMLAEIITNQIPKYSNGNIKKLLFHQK
Put plainly: GR Fluorescence Polarization Assay (PolarScreen Glucocorticoid Receptor Competitor Assay, Red). The note with it: fluorescence polarization binding ranges. How it is done: Fluorescence polarization assays were carried out using the PolarScreen™ Glucocorticoid Receptor Competitor Assay, Red from Invitrogen (P2893). The assay buffer was prepared according to the manufacturer's protocol and used to dilute the fluorescent glucocorticoid and GR. Compounds were prepared and serial diluted 1:4 in DMSO. Compound, fluorescent glucocorticoid and GR were added in a final volume of 20 μL and incubated overnight at 4° C. Fluorescent polarization was measured on the PerkinElmer Envision®. Fluorescence polarization binding ranges measured using GR Fluorescence Polarization Assay: […]

The subject of a further test is IL-6. Put plainly: A549 Cell Assay to Measure Inflammation Markers (inhibition of IL-1β-induced IL-6). Format: cell-based. As to conditions: A549 cells, read-out: A549 cell assay. How it is done: A549 Cell Assay to Measure Inflammation Markers
A549 cells were seeded (3E4 cells/well) in 96-well assay plates in culture medium (100 μL/well., F-12 K base media, supplemented with 10% FBS and 100 μ/mL-100 μg/mL Pen-Strep.) After overnight culture in an incubator set to 37° C., 4.9% CO2, and 90% humidity, media was removed from adherent cells by aspiration and replaced with 100 μL/well Assay Medium (F-12 K base media supplemented with 5% charcoal stripped calf sera and 100 U/mL-100 μg/mL Pen-Strep.) Compounds were prepared in DMSO and serial diluted (1:3, 1:4, or 1:5) with DMSO in Dilution Plate(s) to give 10 dilution points for each compound tested. Further dilution (1:250) of compound was made into assay medium and 50 μL/well diluted drug or DMSO/media control was applied to cells. After a 1 h pre-incubation in a temperature, CO2, and humidity controlled incubator, set to 37° C., 50 μL/well of 4 ng/mL IL-1β diluted in assay media, was applied to cultures. Assay plates, with a final volume of 200 μL/well and final concentrations of 0.1% DMSO and 1 ng/mL IL-1β were returned to incubator for a four h incubation period. Next, plates were spun at 183 g (1000 rpm in Beckman/Coulter Allegra 6KR centrifuge) for 10 min. Cell-free supernatant (150 μL/well) was collected and IL-6 was measured by MSD kit, following protocol of manufacturer, and using MSD SECTOR Imager 6000 instrument. Potency of compounds to inhibit IL-6 was determined using the percent reduction of measured IL-6 in wells with compound compared to control wells without drug, and relative to (100% inhibition) positive control compound of 1 μM prednisolone. Results were represented as IC50 and Emax values. To verify that viable cell numbers were similar across plate(s), and not confounding compound IC50 data interpretation, the remaining 50 μL/well of cells and media (after removal of supernatant) were used to run Cell Titer-Glo Assay per directions of manufacturer.

Read-outs that look alike come from different tables or passages of the source.

As to `CC[C@]12C[C@@H](O)[C@@](O)(C(F)(F)F)C[C@@H]1CCCc1cc3c(cnn3-c3ccc(F)cc3)cc12` (single isomer, unassigned) [Example 122], the IC50 (in test [1]; in the test with IL-6 (Homo sapiens)) was below 100 nM each time.

Turning to `CC[C@@]12CC[C@](O)(COC)C[C@@H]1CCCc1cc3c(cnn3-c3ccncc3)cc12` (single isomer, unassigned) [Example 123], the IC50 (in test [1]; in the test with IL-6 (Homo sapiens)) was below 100 nM throughout.

On to `CC[C@@]12CC[C@](O)(COC)C[C@@H]1CCOc1cc3c(cnn3-c3ccnc(C)c3)cc12` (single isomer, unassigned) [Example 128], for which the IC50 (in test [1]; in the test with IL-6 (Homo sapiens)) was below 100 nM throughout.

On to `CC[C@@]12CC[C@](O)(C(F)(F)F)C[C@H]1CCOc1cc3c(cnn3-c3ccc(F)cc3)cc12` (single isomer, unassigned) [Example 146], for which the IC50 (in test [1]; in the test with IL-6 (Homo sapiens)) was below 100 nM in each case.

On to `CC[C@]12CC[C@@](O)(C(F)(F)F)C[C@@H]1CCOc1cc3c(cnn3-c3ccc(F)cc3)cc12` (single isomer, unassigned) [Example 147], for which the IC50 was below 100 nM in test [1] and 100 to 1000 nM in the test on IL-6 (Homo sapiens).

Consider `C[C@@]1(O)CC[C@@]2(Cc3ccccn3)c3cc4cnn(-c5ccc(F)cc5)c4nc3CCC[C@H]2C1` (single isomer, unassigned) [Example 149], for which the IC50 (in test [1]; in the test on IL-6 (Homo sapiens)) was below 100 nM throughout.

For the compound `CC[C@]12CC[C@@](O)(C(F)(F)F)C[C@@H]1CCCc1nc3c(cnn3-c3ccc(F)cc3)cc12` (single isomer, unassigned) [Example 153], the IC50 in test [1] is 100 to 1000 nM; with IL-6 (Homo sapiens) it was above 10000 nM.

Regarding `CC[C@@]12CC[C@](O)(C(F)(F)F)C[C@H]1CCCc1nc3c(cnn3-c3ccc(F)cc3)cc12` (single isomer, unassigned) [Example 154], the IC50 (in test [1]; in the test on IL-6 (Homo sapiens)) was below 100 nM each time.

In the case of `C[C@]1(O)CC[C@]2(Cc3ccccn3)c3cc4cnn(-c5ccncc5)c4cc3CCC[C@@H]2C1` [Example 31], the figures for the IC50 (in test [1]; in the test with IL-6) were 100 to 1000 nM and below 100 nM, respectively.

For the compound `CCOC[C@@]1(O)CC[C@@]2(Cc3ccccn3)c3cc4cnn(-c5ccc(F)cc5)c4cc3CCC[C@H]2C1` [Example 32], the IC50 (in test [1]; with IL-6) was below 100 nM throughout.

With `CCOC[C@]1(O)CC[C@]2(Cc3ccccn3)c3cc4cnn(-c5ccc(F)cc5)c4cc3CCC[C@@H]2C1` [Example 33], the IC50 (in test [1]; with IL-6) was below 100 nM each time.

As to `CC[C@]12CC[C@@](O)(COC)C[C@H]1CCCc1cc3c(cnn3-c3ccc(F)cc3)cc12` [Example 34], the IC50 is below 100 nM in test [1] and above 10000 nM with IL-6.

`CC[C@@]12CC[C@](O)(COC)C[C@@H]1CCCc1cc3c(cnn3-c3ccc(F)cc3)cc12` [Example 35]: the IC50 (in test [1]; with IL-6) was below 100 nM in each case.

With `COC[C@]1(O)CC[C@]2(Cc3ncccn3)c3cc4cnn(-c5ccc(F)cc5)c4cc3CCC[C@@H]2C1` [Example 36], the IC50 in test [1] was below 100 nM; in the test with IL-6, above 10000 nM.

Regarding `CC[C@@]12CC[C@](O)(COC)C[C@H]1CCCc1cc3c(cnn3-c3ccc(F)cc3)cc12` [Example 37], the IC50 (in test [1]; with IL-6) was below 100 nM in each case.

For `COC[C@]1(O)CC[C@]2(CC3CC3)c3cc4cnn(-c5ccc(F)cc5)c4cc3CCC[C@@H]2C1` [Example 39], the IC50 (in test [1]; in the test on IL-6) was below 100 nM in each case.

Regarding `COC[C@@]1(O)CC[C@@]2(CC3CC3)c3cc4cnn(-c5ccc(F)cc5)c4cc3CCC[C@H]2C1` [Example 40], the IC50 (in test [1]; with IL-6) was below 100 nM each time.

Turning to `COC[C@@]1(O)CC[C@@]2(Cc3ncccn3)c3cc4cnn(-c5ccc(F)cc5)c4cc3CCC[C@H]2C1` [Example 41], the IC50 (in test [1]; with IL-6) was below 100 nM in each case.

Take `CC[C@]12CC[C@@](O)(COC)C[C@H]1CCCc1cc3c(cnn3-c3cccnc3)cc12` [Example 43]: the IC50 in test [1] is below 100 nM; in the test with IL-6 it was above 10000 nM.

Consider `CC[C@@]12CC[C@](O)(COC)C[C@@H]1CCCc1cc3c(cnn3-c3cccnc3)cc12` [Example 44], for which the IC50 (in test [1]; with IL-6) was below 100 nM throughout.

Turning to `CC[C@]12CC[C@@](O)(COC)C[C@H]1CCCc1cc3c(cnn3-c3ccccn3)cc12` [Example 46], the IC50 is 100 to 1000 nM in test [1] and above 10000 nM in the test on IL-6.

As for `CC[C@@]12CC[C@](O)(COC)C[C@@H]1CCCc1cc3c(cnn3-c3ccccn3)cc12` [Example 47], the IC50 (in test [1]; with IL-6) was below 100 nM throughout.

As to `COC[C@]1(O)CC[C@]2(Cc3ccccn3)c3cc4cnn(-c5ccncc5)c4cc3CCC[C@@H]2C1` [Example 48], the IC50 in test [1] was 100 to 1000 nM; in the test on IL-6 it was below 100 nM.

On to `COC[C@@]1(O)CC[C@@]2(Cc3ccccn3)c3cc4cnn(-c5ccncc5)c4cc3CCC[C@H]2C1` [Example 49], for which the IC50 (in test [1]; in the test on IL-6) was below 100 nM throughout.

Consider `CC[C@]12CC[C@](C)(O)C[C@H]1CCCc1cc3c(cnn3-c3ccc(F)cc3)cc12` [Example 53], for which the IC50 (in test [1]; in the test on IL-6) was below 100 nM each time.

Take `CC[C@@]12CC[C@@](C)(O)C[C@@H]1CCCc1cc3c(cnn3-c3ccc(F)cc3)cc12` [Example 54]: the IC50 (in test [1]; in the test on IL-6) was below 100 nM throughout.

As for `C[C@@]1(O)CC[C@@]2(Cc3ncccn3)c3cc4cnn(-c5ccc(F)cc5)c4cc3CCC[C@H]2C1` [Example 55], the IC50 (in test [1]; in the test with IL-6) was below 100 nM each time.

For `C[C@]1(O)CC[C@]2(Cc3ncccn3)c3cc4cnn(-c5ccc(F)cc5)c4cc3CCC[C@@H]2C1` [Example 56], the IC50 was 100 to 1000 nM in test [1] and above 10000 nM in the test with IL-6.

Consider `C[C@@]1(O)CC[C@@]2(CC3CC3)c3cc4cnn(-c5ccc(F)cc5)c4cc3CCC[C@H]2C1` [Example 57], for which the IC50 (in test [1]; in the test on IL-6) was below 100 nM throughout.

As for `C[C@]1(O)CC[C@]2(CC3CC3)c3cc4cnn(-c5ccc(F)cc5)c4cc3CCC[C@@H]2C1` [Example 58], the IC50 (in test [1]; with IL-6) was below 100 nM in each case.

`Cc1cc(-n2ncc3cc4c(cc32)CCC[C@H]2C[C@](C)(O)CC[C@@]42Cc2ccccn2)ccn1` [Example 60]: the IC50 (in test [1]; in the test on IL-6) was below 100 nM throughout.

For `N#CC[C@@]1(O)CC[C@@]2(Cc3ncccn3)c3cc4cnn(-c5ccc(F)cc5)c4cc3CCC[C@H]2C1` [Example 62], the IC50 (in test [1]; in the test on IL-6) was below 100 nM in each case.

`N#CC[C@]1(O)CC[C@]2(Cc3ncccn3)c3cc4cnn(-c5ccc(F)cc5)c4cc3CCC[C@@H]2C1` [Example 63]: the IC50 (in test [1]; in the test with IL-6) was below 100 nM each time.

On to `CC[C@]12CC[C@@](O)(CC#N)C[C@H]1CCCc1cc3c(cnn3-c3ccc(F)cc3)cc12` [Example 64], for which the IC50 (in test [1]; in the test with IL-6) was below 100 nM each time.

Consider `CC[C@@]12CC[C@](O)(CC#N)C[C@@H]1CCCc1cc3c(cnn3-c3ccc(F)cc3)cc12` [Example 65], for which the IC50 (in test [1]; in the test on IL-6) was below 100 nM throughout.

As to `N#CC[C@]1(O)CC[C@]2(CC3CC3)c3cc4cnn(-c5ccc(F)cc5)c4cc3CCC[C@@H]2C1` [Example 66], the IC50 (in test [1]; in the test on IL-6) was below 100 nM each time.
